From PubChem BioAssay (NCI)
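The concentration for 50% growth inhibition is given as GI50. TGI: total growth inhibition.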

What was measured:
Assay in all cases: NCI-60 cell line screen, 384-well format
[1] = test system: A498 renal
[2] = test system: A549 NSCLC
[3] = test system: ACHN renal
[4] = test system: BT-549 breast
[5] = test system: CAKI-1 renal
[6] = test system: COLO 205 colon
[7] = test system: DU-145 prostate
[8] = test system: EKVX NSCLC
[9] = test system: HCC-2998 colon
[10] = test system: HCT-116 colon
[11] = test system: HCT-15 colon
[12] = test system: HL-60(TB) leukemia
[13] = test system: HOP-62 NSCLC
[14] = test system: HOP-92 NSCLC
[15] = test system: HS 578T breast
[16] = test system: HT29 colon
[17] = test system: IGROV1 ovarian
[18] = test system: KM12 colon
[19] = test system: LOX IMVI melanoma
[20] = test system: M14 melanoma
[21] = test system: MALME-3M melanoma
[22] = test system: MCF7 breast
[23] = test system: MDA-MB-231 breast
[24] = test system: MDA-MB-435 melanoma
[25] = test system: MDA-MB-468 breast
[26] = test system: MOLT-4 leukemia
[27] = test system: NCI-H226 lung
[28] = test system: NCI-H23 lung
[29] = test system: NCI-H322M lung
[30] = test system: NCI-H460 NSCLC
[31] = test system: NCI-H522 lung
[32] = test system: NCI/ADR-RES ovarian
[33] = test system: OVCAR-3 ovarian
[34] = test system: OVCAR-4 ovarian
[35] = test system: OVCAR-5 ovarian
[36] = test system: OVCAR-8 ovarian
[37] = test system: PC-3 prostate
[38] = test system: RPMI-8226 leukemia
[39] = test system: RXF 393 renal
[40] = test system: SF-268 CNS
[41] = test system: SF-295 CNS
[42] = test system: SF-539 CNS
[43] = test system: SK-MEL-28 melanoma
[44] = test system: SK-MEL-5 melanoma
[45] = test system: SK-OV-3 ovarian
[46] = test system: SN12C renal
[47] = test system: SNB-19 CNS
[48] = test system: SNB-75 CNS
[49] = test system: SR leukemia
[50] = test system: T-47D breast
[51] = test system: TK-10 renal
[52] = test system: U251 glioblastoma
[53] = test system: UACC-257 melanoma
[54] = test system: UACC-62 melanoma

In the case of COc1cc2c(cc1-c1c(C)noc1C)ncc1[nH]c(=O)n([C@H](C)c3ccccn3)c12, the GI50 [1] is reported as 693 nM, the TGI [1] is reported as greater than 100000 nM and the GI50 [2] is reported as 2390 nM. For the same compound, the TGI [2] was greater than 100000 nM, the GI50 [3] was 1610 nM and the TGI [3] was greater than 100000 nM. For the same compound, the GI50 [4] was 504 nM, the TGI [4] was 11400 nM and the GI50 [5] was 479 nM. For the same compound, the TGI [5] was greater than 100000 nM, the GI50 [6] was 498 nM and the TGI [6] was 6270 nM. It also gave a GI50 [7] of 8960 nM, a TGI [7] greater than 100000 nM and a GI50 [8] of 27700 nM. The TGI [8] was greater than 100000 nM, the GI50 [9] was 303 nM and the TGI [9] was 2000 nM. The GI50 [10] was 1900 nM, the TGI [10] was greater than 100000 nM and the GI50 [11] was 488 nM. For the same compound, the TGI [11] was 2800 nM, the GI50 [12] was 144 nM and the TGI [12] was 277 nM. The GI50 [13] was 335 nM, the TGI [13] was 2540 nM and the GI50 [14] was 11400 nM. For the same compound, the TGI [14] was greater than 100000 nM, the GI50 [15] was 342 nM and the TGI [15] was 21500 nM. The GI50 [16] was 412 nM, the TGI [16] was greater than 100000 nM and the GI50 [17] was 584 nM. For the same compound, the TGI [17] was 9780 nM, the GI50 [18] was 1710 nM and the TGI [18] was greater than 100000 nM. The GI50 [19] was 245 nM, the TGI [19] was 574 nM and the GI50 [20] was 1030 nM. It also gave a TGI [20] of 33200 nM, a GI50 [21] of 1910 nM and a TGI [21] of 32500 nM. The GI50 [22] was 269 nM, the TGI [22] was greater than 100000 nM and the GI50 [23] was 910 nM. It also gave a TGI [23] greater than 100000 nM, a GI50 [24] of 2450 nM and a TGI [24] of 51200 nM. For the same compound, the GI50 [25] was 872 nM, the TGI [25] was greater than 100000 nM and the GI50 [26] was 915 nM. The TGI [26] was 7740 nM, the GI50 [27] was 1310 nM and the TGI [27] was 24700 nM. For the same compound, the GI50 [28] was 1250 nM, the TGI [28] was greater than 100000 nM and the GI50 [29] was 509 nM. The TGI [29] was 9510 nM, the GI50 [30] was 2920 nM and the TGI [30] was greater than 100000 nM. For the same compound, the GI50 [31] was 321 nM, the TGI [31] was 2410 nM and the GI50 [32] was 3050 nM. It also gave a TGI [32] of 16800 nM, a GI50 [33] of 421 nM and a TGI [33] of 7130 nM. For the same compound, the GI50 [34] was 199 nM, the TGI [34] was 615 nM and the GI50 [35] was 392 nM. For the same compound, the TGI [35] was 10900 nM, the GI50 [36] was 521 nM and the TGI [36] was 9600 nM. It also gave a GI50 [37] of 743 nM, a TGI [37] greater than 100000 nM and a GI50 [38] of 212 nM. It also gave a TGI [38] of 819 nM, a GI50 [39] of 8710 nM and a TGI [39] greater than 100000 nM. The GI50 [40] was 8130 nM, the TGI [40] was greater than 100000 nM and the GI50 [41] was 5300 nM. The TGI [41] was greater than 100000 nM, the GI50 [42] was 829 nM and the TGI [42] was greater than 100000 nM. For the same compound, the GI50 [43] was 2640 nM, the TGI [43] was greater than 100000 nM and the GI50 [44] was 438 nM. For the same compound, the TGI [44] was 8690 nM, the GI50 [45] was 577 nM and the TGI [45] was 45500 nM. It also gave a GI50 [46] of 364 nM, a TGI [46] greater than 100000 nM and a GI50 [47] of 922 nM. For the same compound, the TGI [47] was 63500 nM, the GI50 [48] was 18800 nM and the TGI [48] was greater than 100000 nM. For the same compound, the GI50 [49] was 297 nM, the TGI [49] was 14300 nM and the GI50 [50] was 3100 nM. The TGI [50] was greater than 100000 nM, the GI50 [51] was 575 nM and the TGI [51] was 12400 nM. It also gave a GI50 [52] of 3170 nM, a TGI [52] greater than 100000 nM and a GI50 [53] of 503 nM. It also gave a TGI [53] of 11600 nM, a GI50 [54] of 308 nM and a TGI [54] greater than 100000 nM.
